Test results as given in patent US20230129359A1, “MUSCARINIC RECEPTOR 4 ANTAGONISTS AND METHODS OF USE” (Neurocrine Biosciences, Inc., priority 2020, published 2023).

molecular target: T1, human M4 receptor (Homo sapiens, UniProt P08173); assay: Radioligand ([3H]N-methylscopolamine) binding assay, membranes from CHO cells expressing human M4 receptor; settings: Ki against human M4 receptor; membranes from CHO cells; tritiated N-methylscopolamine 1.5 nM; read-out: K
T1 construct: expressed in transfected cells; host or cells: CHO cells
T1 sequence (P08173 1-479): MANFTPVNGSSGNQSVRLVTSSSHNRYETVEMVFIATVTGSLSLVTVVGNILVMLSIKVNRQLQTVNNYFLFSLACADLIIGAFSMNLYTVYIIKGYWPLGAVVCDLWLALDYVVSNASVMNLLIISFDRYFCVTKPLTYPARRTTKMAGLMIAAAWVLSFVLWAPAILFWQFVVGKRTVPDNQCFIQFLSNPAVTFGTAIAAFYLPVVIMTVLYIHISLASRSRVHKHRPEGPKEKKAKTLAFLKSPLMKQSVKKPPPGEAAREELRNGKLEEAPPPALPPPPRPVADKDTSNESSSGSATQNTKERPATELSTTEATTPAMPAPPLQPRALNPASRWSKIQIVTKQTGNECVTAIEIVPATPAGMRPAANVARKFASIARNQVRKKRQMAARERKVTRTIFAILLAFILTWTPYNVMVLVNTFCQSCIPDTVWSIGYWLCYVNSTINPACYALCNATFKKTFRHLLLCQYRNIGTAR
Method in brief: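 Competition binding used CHO-cell membranes expressing human M4 with 1.5 nM [3H]N-methylscopolamine and twelve compound concentrations ([…]). Incubation was 90 minutes at 37 °C in 50 mM HEPES, 100 mM NaCl, 5 mM MgCl2, 1 mM EDTA, pH 7.4. Bound ligand was collected by filtration onto PEI-treated glass fibre for Ki.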

Row | SMILES | Ki [nM]
1 | COc1ccc2nc(N3C[C@@H](C)N(C(=O)OC4CC5(C4)CN(Cc4ccccc4)C5)C[C@@H]3C)cnc2c1 [Compound 173, 2-benzyl-2-azaspiro[3.3]heptan-6-yl (2R,5S)-4-(6-methoxyquinoxalin-2-yl)-2,5-dimethylpiperazine-1-carboxylate] | 10 to 100
2 | C[C@@H]1CN(c2ncc3ccccc3n2)C[C@H](C)N1C(=O)OC1CC2(C1)CN(Cc1ccccc1)C2 [Compound 377, 2-benzyl-2-azaspiro[3.3]heptan-6-yl (2R,6S)-2,6-dimethyl-4-(quinazolin-2-yl)piperazine-1-carboxylate] | 100 to 1000
3 | C[C@@H]1CN(c2ncc(C(F)(F)F)cn2)C[C@H](C)N1C(=O)NC1CC2(C1)CN(Cc1ccc([N+](=O)[O-])cc1)C2 [Compound 314, (2R,6S)-2,6-dimethyl-N-{2-[(4-nitrophenyl)methyl]-2-azaspiro[3.3]heptan-6-yl}-4-[5-(trifluoromethyl)pyrimidin-2-yl]piperazine-1-carboxamide] | 10 to 100
4 | C[C@H]1CN(c2ncc(C(F)(F)F)cn2)CCN1C(=O)NC1CC2(C1)CN(Cc1ccccc1)C2 [Compound 5, (2S)-N-{2-benzyl-2-azaspiro[3.3]heptan-6-yl}-2-methyl-4-[5-(trifluoromethyl)pyrimidin-2-yl]piperazine-1-carboxamide] | 10 to 100
5 | C[C@@H]1CN(c2ncc(C(F)(F)F)cn2)C[C@H](C)N1C(=O)NCC1CC2(C1)CN(Cc1ccccc1)C2 [Compound 97, (2R,6S)-N-({2-benzyl-2-azaspiro[3.3]heptna-6-yl}methyl)-2,6-dimethyl-4-[5-(trifluoromethyl)pyrimidin-2-yl]piperazine-1-carboxamide] | 10 to 100
6 | C[C@@H]1CN(c2cnc(C(F)(F)F)cn2)C[C@@H](C)N1C(=O)NCC1CC2(C1)CN(Cc1ccccc1)C2 [Compound 63, (2R,6R)-N-({2-benzyl-2-azaspiro[3.3]heptan-6-yl}methyl)-2,6-dimethyl-4-[5-(trifluoromethyl)pyrazin-2-yl]piperazine-1-carboxamide] | 100 to 1000
7 | C[C@@H]1CN(c2cnc(C(F)(F)F)cn2)[C@@H](C)CN1C(=O)OC1CC2(C1)CN(Cc1ccc(F)cc1)C2 [Compound 400, 2-[(4-fluorophenyl)methyl]-2-azaspiro[3.3]heptan-6-yl (2R,5S)-2,5-dimethyl-4-[5-(trifluoromethyl)pyrazin-2-yl]piperazine-1-carboxylate] | 10 to 100
8 | C[C@@H]1CN(c2ncc(C(F)(F)F)cn2)CCN1C(=O)OC1CC2(C1)CN(Cc1ccc(F)cc1)C2 [Compound 457, 2-[(4-fluorophenyl)methyl]-2-azaspiro[3.3]heptan-6-yl (2R)-2-methyl-4-[5-(trifluoromethyl)pyrimidin-2-yl]piperazine-1-carboxylate] | 100 to 1000
9 | C[C@@H]1CN(c2ncc(C(F)(F)F)cn2)C[C@H](C)N1C(=O)OC1CC2(C1)CN(CC1CCCCC1)C2 [Compound 154, 2-(cyclohexylmethyl)-2-azaspiro[3.3]heptan-6-yl (2R,6S)-2,6-dimethyl-4-[5-(trifluoromethyl)pyrimidin-2-yl]piperazine-1-carboxylate] | 10 to 100
10 | C[C@@H]1CN(c2nc3ccc(C#N)cc3s2)[C@@H](C)CN1C(=O)OC1CC2(C1)CN(Cc1ccccc1)C2 [Compound 435, 2-benzyl-2-azaspiro[3.3]heptan-6-yl (2R,5S)-4-(6-cyano-1,3-benzothiazol-2-yl)-2,5-dimethylpiperazine-1-carboxylate] | 100 to 1000
11 | COc1ccc2nc(N3C[C@@H](C)N(C(=O)OC4CC5(C4)CN(Cc4ccccc4)C5)[C@@H](C)C3)cnc2c1 [Compound 379, 2-benzyl-2-azaspiro[3.3]heptan-6-yl (2R,6S)-4-(6-methoxyquinoxalin-2-yl)-2,6-dimethylpiperazine-1-carboxylate] | 10 to 100
12 | C[C@@H]1CN(c2ncc(C(F)(F)F)cn2)C[C@H](C)N1C(=O)NC1CC2(C1)CN(CCCCc1ccccc1)C2 [Compound 312, (2R,6S)-2,6-dimethyl-N-[2-(4-phenylbutyl)-2-azaspiro[3.3]heptan-6-yl]-4-[5-(trifluoromethyl)pyrimidin-2-yl]piperazine-1-carboxamide] | 100 to 1000

The remaining lines, values ahead:

Row | Ki [nM] | SMILES
13 | < 10 | CCc1cnc(N2C[C@@H](C)N(C(=O)OC3CC4(C3)CN(Cc3ccccc3)C4)[C@@H](C)C2)nc1 [Compound 497, 2-benzyl-2-azaspiro[3.3]heptan-6-yl (2R,6S)-4-(5-ethylpyrimidin-2-yl)-2,6-dimethylpiperazine-1-carboxylate]
14 | 10 to 100 | [2H]c1c([2H])c([2H])c(C([2H])([2H])N2CC3(CC(OC(=O)N4C[C@H](C)N(c5cnc(C(F)(F)F)cn5)C[C@H]4C)C3)C2)c([2H])c1[2H] [Compound 361, 2-[(^2H5)phenyl(^2H2)methyl]-2-azaspiro[3.3]heptan-6-yl (2R,5S)-2,5-dimethyl-4-[5-(trifluoromethyl)pyrazin-2-yl]piperazine-1-carboxylate]
15 | 100 to 1000 | C[C@@H]1CN(c2cncc(C(F)(F)F)n2)[C@@H](C)CN1C(=O)OC1CC2(C1)CN(Cc1ccccc1)C2 [Compound 194, 2-benzyl-2-azaspiro[3.3]heptan-6-yl (2R,5S)-2,5-dimethyl-4-[6-(trifluoromethyl)pyrazin-2-yl]piperazine-1-carboxylate]
16 | < 10 | C[C@@H]1CN(c2nc3cc(F)ccc3s2)[C@@H](C)CN1C(=O)OC1CC2(C1)CN(Cc1ccccc1)C2 [Compound 440, 2-benzyl-2-azaspiro[3.3]heptan-6-yl (2R,5S)-4-(5-fluoro-1,3-benzothiazol-2-yl)-2,5-dimethylpiperazine-1-carboxylate]
17 | 10 to 100 | C[C@@H]1CN(c2ncc(C#N)cn2)C[C@H](C)N1C(=O)OC1CC2(C1)CN(Cc1ccc(F)cc1)C2 [Compound 472, 2-[(4-fluorophenyl)methyl]-2-azaspiro[3.3]heptan-6-yl (2R,6S)-4-(5-cyanopyrimidin-2-yl)-2,6-dimethylpiperazine-1-carboxylate]
18 | < 10 | C[C@@H]1CN(c2ncc(C(F)(F)F)cn2)[C@@H](C)CN1C(=O)OC1(C)CC2(CN(Cc3ccccc3)C2)C1 [Compound 358, 2-benzyl-6-methyl-2-azaspiro[3.3]heptan-6-yl (2R,5S)-2,5-dimethyl-4-[5-(trifluoromethyl)pyrimidin-2-yl]piperazine-1-carboxylate]
19 | 100 to 1000 | C[C@@H]1CN(c2cnc(C(F)(F)F)cn2)C[C@@H](C)N1C(=O)OCC1CC2(C1)CN(Cc1ccccc1)C2 [Compound 143, {2-benzyl-2-azaspiro[3.3]heptan-6-yl}methyl (2R,6R)-2,6-dimethyl-4-[5-(trifluoromethyl)pyrazin-2-yl]piperazine-1-carboxylate]
20 | < 10 | C[C@@H]1CN(c2ncc(OC(F)(F)F)cn2)C[C@H](C)N1C(=O)OC1CC2(C1)CN(Cc1ccccc1)C2 [Compound 498, 2-benzyl-2-azaspiro[3.3]heptan-6-yl (2R,6S)-2,6-dimethyl-4-[5-(trifluoromethoxy)pyrimidin-2-yl]piperazine-1-carboxylate]
21 | < 10 | C[C@@H]1CN(c2ncc3ccccc3n2)C[C@H](C)N1C(=O)OC1CC2(C1)CN(Cc1ccc(F)cc1)C2 [Compound 392, 2-[(4-fluorophenyl)methyl]-2-azaspiro[3.3]heptan-6-yl (2R,6S)-2,6-dimethyl-4-(quinazolin-2-yl)piperazine-1-carboxylate]
22 | 10 to 100 | COc1ccc2nc(N3C[C@@H](C)N(C(=O)NC4CC5(C4)CN(Cc4ccccc4)C5)[C@@H](C)C3)cnc2c1 [Compound 215, (2R,6S)-N-{2-benzyl-2-azaspiro[3.3]heptan-6-yl}-4-(6-methoxyquinoxalin-2-yl)-2,6-dimethylpiperazine-1-carboxamide]
23 | < 10 | C[C@@H]1CN(c2ncc(C(F)(F)F)cn2)[C@@H](C)CN1C(=O)OC1CC2(C1)CN(Cc1ccccc1)C2 [Compound 136, 2-Benzyl-2-azaspiro[3.3]heptan-6-yl (2R,5S)-2,5-dimethyl-4-[5-(trifluoromethyl)pyrimidin-2-yl]piperazine-1-carboxylate]
24 | < 10 | C[C@@H]1CN(c2ncc(C(F)(F)F)cn2)C[C@@H](C)N1C(=O)NC1CC2(C1)CN(Cc1ccccc1)C2 [Compound 65, (2R,6R)-N-{2-benzyl-2-azaspiro[3.3]heptan-6-yl}-2,6-dimethyl-4-[5-(trifluoromethyl)pyrimidin-2-yl]piperazine-1-carboxamide]
25 | 100 to 1000 | O=C(OC1CC2(C1)CN(Cc1ccccc1)C2)N1CCN(c2ccc(OC(F)(F)F)cc2)CC1 [Compound 108, 2-benzyl-2-azaspiro[3.3]heptan-6-yl 4-[4-(trifluoromethoxy)phenyl]piper-azine-1-carboxylate]
26 | < 10 | C[C@@H]1CN(c2cnc(OC(F)(F)F)cn2)C[C@@H](C)N1C(=O)OC1CC2(C1)CN(Cc1ccccc1)C2 [Compound 203, 2-benzyl-2-azaspiro[3.3]heptan-6-yl (2R,6R)-2,6-dimethyl-4-[5-(trifluoromethoxy)pyrazin-2-yl]piperazine-1-carboxylate]
27 | < 10 | C[C@@H]1CN(c2ncc(C(F)(F)F)cn2)C[C@H](C)N1C(=O)NC1CC2(C1)CN(Cc1ccc(Cl)cc1)C2 [Compound 325, (2R,6S)-N-{2-[(4-chlorophenyl)methyl]-2-azaspiro[3.3]heptan-6-yl}-2,6-dimethyl-4-[5-(trifluoromethyl)pyrimidin-2-yl]piperazine-1-carboxamide]
